Source: patent US11180462B2, “Microbiocidal oxadiazole derivatives” (SYNGENTA PARTICIPATIONS AG, priority 2015, dated 2021)

Assays:
[1] = test system: Puccinia recondita f. Sp. Tritici; test: Fungicidal activity against Puccinia recondita f. sp. tritici / wheat / leaf disc preventative (brown rust); assay type: in vivo; conditions: foliar, 200 ppm in the applied formulation, wheat leaf segments, preventative, compared to untreated control leaf disks, read-out: disease control
How it was run: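 200 ppm spray on wheat cv. Kanzler leaf segments; spore inoculation +1 day; 19° C., 75% rh, 12 h/12 h light cycle; single rating of % control vs untreated at 7 to 9 days.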

[2] = test system: Puccinia recondita f. Sp. Tritici; test: Fungicidal activity against Puccinia recondita f. sp. tritici / wheat / leaf disc curative (brown rust); assay type: in vivo; conditions: foliar, 24 h, 200 ppm in the applied formulation, wheat leaf segments, curative (applied 1 day after inoculation), compared to untreated control leaf disks, read-out: disease control
How it was run: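 Segments of wheat cv. Kanzler were laid on agar and inoculated with a spore suspension of the rust, then held in darkness at 19° C and 75% relative humidity. One day later the water-diluted formulated compound was applied, with incubation continued under a 12 h light/dark cycle.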

[3] = test system: Phakopsora Pachyrhizi; test: Fungicidal activity against Phakopsora pachyrhizi / soybean / leaf disc preventative (Asian soybean rust); assay type: in vivo; conditions: foliar, 200 ppm in the applied formulation, soybean leaf disks, compared to untreated control leaf disks, read-out: disease control
How it was run: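 Scored 12 to 14 days post-application as percent control relative to untreated check discs, rust spores were sprayed under the disc one day after compound treatment. Incubation: 20°C, 75% rh, first 24–36 h in darkness, then 12 h daily light; discs kept on water agar.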

[4] = test system: Glomerella lagenarium (Colletotrichum lagenarium); test: Fungicidal activity against Glomerella lagenarium (Colletotrichum lagenarium) liquid culture / cucumber / preventative (anthracnose); assay type: cell-based; conditions: Colletotrichum orbiculare; 20 ppm in the applied formulation; liquid culture (PDB), growth inhibition measured photometrically after 3 to 4 days; compared to untreated control; read-out: disease control
How it was run: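 Percent activity against the untreated check was derived from photometric growth measurements made 2 to 7 days after conidia in potato dextrose broth were combined with compound at 20 ppm. Cultures were kept dark at 24 °C and 96% humidity.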

O=C(ON(Cc1ccc(-c2noc(C(F)(F)F)n2)cc1)C(=O)C1CCC1)C1CCC1 [Compound 1.762, [cyclobutane-carbonyl-[[4-[5-(trifluoromethyl)-1,2,4-oxadiazol-3-yl]phenyl]methyl]-amino] cyclobutane-carboxylate]
≥ 80%: pest or weed control at 200 ppm [1] | pest or weed control at 200 ppm [2] | pest or weed control at 200 ppm [3] | inhibition of growth at 20 ppm [4]

CN(Cc1ccc(-c2noc(C(F)(F)F)n2)cc1)C(=O)C1CC1 [Compound 1.532, N-methyl-N-[[4-[5-(trifluoromethyl)-1,2,4-oxadiazol-3-yl]phenyl]methyl]-cyclopropane-carboxamide]
≥ 80%: pest or weed control at 200 ppm [1] | pest or weed control at 200 ppm [2] | pest or weed control at 200 ppm [3] | inhibition of growth at 20 ppm [4]

CN(Cc1ccc(-c2noc(C(F)(F)F)n2)cc1)C(=O)C1(C)COC1 [Compound 1.527, N,3-dimethyl-N-[[4-[5-(trifluoromethyl)-1,2,4-oxadiazol-3-yl]phenyl]methyl]-oxetane-3-carboxamide]
≥ 80%: pest or weed control at 200 ppm [1] | pest or weed control at 200 ppm [2] | pest or weed control at 200 ppm [3] | inhibition of growth at 20 ppm [4]

CCCN(Cc1ccc(-c2noc(C(F)(F)F)n2)cc1)C(=O)C1(C)COC1 [Compound 1.660, 3-methyl-N-propyl-N-[[4-[5-(trifluoromethyl)-1,2,4-oxadiazol-3-yl]phenyl]methyl]-oxetane-3-carboxamide]
≥ 80%: pest or weed control at 200 ppm [1] | pest or weed control at 200 ppm [2] | pest or weed control at 200 ppm [3] | inhibition of growth at 20 ppm [4]

O=C(CCC(F)(F)F)N(Cc1ccc(-c2noc(C(F)(F)F)n2)cc1)C1CC1 [Compound 1.101, N-cyclopropyl-4,4,4-trifluoro-N-[[4-[5-(trifluoromethyl)-1,2,4-oxadiazol-3-yl]phenyl]methyl]-butanamide]
≥ 80%: pest or weed control at 200 ppm [1] | pest or weed control at 200 ppm [2] | pest or weed control at 200 ppm [3] | inhibition of growth at 20 ppm [4]

CN(Cc1ccc(-c2noc(C(F)(F)F)n2)cc1)C(=O)C1CCC1 [Compound 1.518, N-methyl-N-[[4-[5-(trifluoromethyl)-1,2,4-oxadiazol-3-yl]phenyl]methyl]-cyclobutane-carboxamide]
≥ 80%: pest or weed control at 200 ppm [1] | pest or weed control at 200 ppm [2] | pest or weed control at 200 ppm [3] | inhibition of growth at 20 ppm [4]

C=CCN(Cc1ccc(-c2noc(C(F)(F)F)n2)cc1)C(=O)C1CC1(F)F (centres unmarked) [Compound 1.484, N-allyl-2,2-difluoro-N-[[4-[5-(trifluoromethyl)-1,2,4-oxadiazol-3-yl]phenyl]methyl]-cyclopropane-carboxamide]
≥ 80%: pest or weed control at 200 ppm [1] | pest or weed control at 200 ppm [2] | pest or weed control at 200 ppm [3] | inhibition of growth at 20 ppm [4]

CON(Cc1ccc(-c2noc(C(F)(F)F)n2)cc1)C(=O)CC(C)(C)C [Compound 1.41, N-methoxy-3,3-dimethyl-N-[[4-[5-(trifluoromethyl)-1,2,4-oxadiazol-3-yl]phenyl]methyl]-butanamide]
≥ 80%: pest or weed control at 200 ppm [1] | pest or weed control at 200 ppm [2] | pest or weed control at 200 ppm [3] | inhibition of growth at 20 ppm [4]

COCCC(=O)N(O)Cc1ccc(-c2noc(C(F)(F)F)n2)cc1 [Compound 1.758, N-hydroxy-3-methoxy-N-[[4-[5-(trifluoromethyl)-1,2,4-oxadiazol-3-yl]phenyl]methyl]-propanamide]
≥ 80%: pest or weed control at 200 ppm [1] | pest or weed control at 200 ppm [2] | pest or weed control at 200 ppm [3] | inhibition of growth at 20 ppm [4]

CCC(C)N(Cc1ccc(-c2noc(C(F)(F)F)n2)cc1)C(=O)C1CCCO1 (centres unmarked) [Compound 1.398, N-sec-butyl-N-[[4-[5-(trifluoromethyl)-1,2,4-oxadiazol-3-yl]phenyl]methyl]-tetrahydrofuran-2-carboxamide]
≥ 80%: pest or weed control at 200 ppm [1] | pest or weed control at 200 ppm [2] | pest or weed control at 200 ppm [3] | inhibition of growth at 20 ppm [4]

CNC(=O)N(Cc1ccc(-c2noc(C(F)(F)F)n2)cc1)OC [Compound 3.4, 1-methoxy-3-methyl-1-[[4-[5-(trifluoromethyl)-1,2,4-oxadiazol-3-yl]phenyl]methyl]urea]
≥ 80%: pest or weed control at 200 ppm [1] | pest or weed control at 200 ppm [2] | pest or weed control at 200 ppm [3] | inhibition of growth at 20 ppm [4]

CON(Cc1ccc(-c2noc(C(F)(F)F)n2)cc1)C(=O)C1(C)CC1(Cl)Cl (centres unmarked) [Compound 1.32, 2,2-dichloro-N-methoxy-1-methyl-N-[[4-[5-(trifluoromethyl)-1,2,4-oxadiazol-3-yl]phenyl]methyl]-cyclopropane-carboxamide]
≥ 80%: pest or weed control at 200 ppm [1] | pest or weed control at 200 ppm [2] | pest or weed control at 200 ppm [3] | inhibition of growth at 20 ppm [4]

CON(Cc1ccc(-c2noc(C(F)(F)F)n2)cc1)C(=O)CC1CC1 [Compound 1.26, 2-cyclopropyl-N-methoxy-N-[[4-[5-(trifluoromethyl)-1,2,4-oxadiazol-3-yl]phenyl]methyl]-acetamide]
≥ 80%: pest or weed control at 200 ppm [1] | pest or weed control at 200 ppm [2] | pest or weed control at 200 ppm [3] | inhibition of growth at 20 ppm [4]

CCC(=O)N(Cc1ccc(-c2noc(C(F)(F)F)n2)cc1)CC1CCCO1 (centres unmarked) [Compound 1.432, N-(tetrahydrofuran-2-ylmethyl)-N-[[4-[5-(trifluoromethyl)-1,2,4-oxadiazol-3-yl]phenyl]methyl]-propanamide]
≥ 80%: pest or weed control at 200 ppm [1] | pest or weed control at 200 ppm [2] | pest or weed control at 200 ppm [3] | inhibition of growth at 20 ppm [4]

CCC(=O)N(Cc1ccc(-c2noc(C(F)(F)F)n2)cc1)C(C)CC (centres unmarked) [Compound 1.389, N-sec-butyl-N-[[4-[5-(trifiuoromethyl)-1,2,4-oxadiazol-3-yl]phenyl]methyl]-propanamide]
≥ 80%: pest or weed control at 200 ppm [1] | pest or weed control at 200 ppm [2] | pest or weed control at 200 ppm [3] | inhibition of growth at 20 ppm [4]

COC(C)C(=O)N(Cc1ccc(-c2noc(C(F)(F)F)n2)cc1)Cc1ccco1 (centres unmarked) [Compound 1.472, N-(2-furylmethyl)-2-methoxy-N-[[4-[5-(trifluoromethyl)-1,2,4-oxadiazol-3-yl]phenyl]methyl]-propanamide]
≥ 80%: pest or weed control at 200 ppm [1] | pest or weed control at 200 ppm [2] | pest or weed control at 200 ppm [3] | inhibition of growth at 20 ppm [4]

CCCN(Cc1ccc(-c2noc(C(F)(F)F)n2)cc1)C(=O)C(CC)COC (centres unmarked) [Compound 1.661, 2-(methoxymethyl)-N-propyl-N-[[4-[5-(trifluoromethyl)-1,2,4-oxadiazol-3-yl]phenyl]methyl]-butanamide]
≥ 80%: pest or weed control at 200 ppm [1] | pest or weed control at 200 ppm [2] | pest or weed control at 200 ppm [3] | inhibition of growth at 20 ppm [4]

COCC(=O)N(Cc1ccc(-c2noc(C(F)(F)F)n2)cc1)C(C)C [Compound 1.600, N-isopropyl-2-methoxy-N-[[4-[5-(trifluoromethyl)-1,2,4-oxadiazol-3-yl]phenyl]methyl]-acetamide]
≥ 80%: pest or weed control at 200 ppm [1] | pest or weed control at 200 ppm [2] | pest or weed control at 200 ppm [3] | inhibition of growth at 20 ppm [4]

CCCN(Cc1ccc(-c2noc(C(F)(F)F)n2)cc1)C(C)=O [Compound 1.668, N-propyl-N-[[4-[5-(trifluoromethyl)-1,2,4-oxadiazol-3-yl]phenyl]methyl]-acetamide]
≥ 80%: pest or weed control at 200 ppm [1] | pest or weed control at 200 ppm [2] | pest or weed control at 200 ppm [3] | inhibition of growth at 20 ppm [4]

C#CCOC(=O)NC(C(=O)N(Cc1ccc(-c2noc(C(F)(F)F)n2)cc1)OC)C(C)C (centres unmarked) [Compound 1.77, prop-2-ynyl N-[1-[methoxy-[[4-[5-(trifluoromethyl)-1,2,4-oxadiazol-3-yl]phenyl]methyl]carbamoyl]-2-methyl-propyl]carbamate]
≥ 80%: pest or weed control at 200 ppm [1] | pest or weed control at 200 ppm [2] | pest or weed control at 200 ppm [3] | inhibition of growth at 20 ppm [4]

O=C(C1CCC1)N(Cc1ccc(-c2noc(C(F)(F)F)n2)cc1)C1CC1 [Compound 1.112, N-cyclopropyl-N-[[4-[5-(trifluoromethyl)-1,2.4-oxadiazol-3-yl]phenyl]methyl]-cyclobutane-carboxamide]
≥ 80%: pest or weed control at 200 ppm [1] | pest or weed control at 200 ppm [2] | pest or weed control at 200 ppm [3] | inhibition of growth at 20 ppm [4]

CON(Cc1ccc(-c2noc(C(F)(F)F)n2)cc1)C(=O)C1CCCCC1 [Compound 1.16, N-methoxy-N-[[4-[5-(trifluoromethyl)-1,2,4-oxadiazol-3-yl]phenyl]methyl]-cyclohexane-carboxamide]
≥ 80%: pest or weed control at 200 ppm [1] | pest or weed control at 200 ppm [2] | pest or weed control at 200 ppm [3] | inhibition of growth at 20 ppm [4]

O=C(Cc1cccnc1)N(Cc1ccc(-c2noc(C(F)(F)F)n2)cc1)C1CC1 [Compound 1.102, N-cyclopropyl-2-(3-pyridyl)-N-[[4-[5-(trifluoromethyl)-1,2,4-oxadiazol-3-yl]phenyl]methyl]-acetamide]
≥ 80%: pest or weed control at 200 ppm [1] | pest or weed control at 200 ppm [2] | pest or weed control at 200 ppm [3] | inhibition of growth at 20 ppm [4]
